A short description of data set [1]: Cytotoxicity, MTT assay. The format is cell-based. The settings on record: human, HaCaT keratinocyte cells, read-out: cell viability; for viability at 24 h, 50 µg/mL: at 50 µg/mL. On the procedure: (§1) Immortal human keratinocyte cells (HaCaT) and […] (3T3) were obtained from Celltec, University of Barcelona. Dulbecco’s Modified Eagle Medium (DMEM) (4.5 g/L glucose) supplemented with 10% (v/v) FBS, 2 mM L-glutamine, 100 U/mL of penicillin, and 100 μg/mL of streptomycin was used to grow the cells in 75 cm^2 culture flasks at 37 °C with a continuous supply of CO2 at a 5% level. Once cells reached about 80% confluence, they were trypsinized with trypsin-EDTA.
(§2) Cells were first grown into the central 60 wells of a 96-well plate under 5% CO2 at 37 °C for 24 h. The DMEM was removed, and cells were exposed to different concentrations of each amphiphile diluted in DMEM supplemented with 5% FBS for 24 h. Finally, two different assays for quantification were used.
(§3) This method relies on the ability of living cells to reduce the yellow MTT reagent into insoluble purple formazan crystals. After the cells were incubated with the surfactants’ solutions, the medium was eliminated, and 100 μL of MTT in PBS (5 mg/mL) diluted 1:10 in culture medium (without phenol red and FBS) was added to each well and co-incubated for 3 h. Then, the medium was discarded, and DMSO was added into each well to solubilize the formazan crystals. Finally, the absorbance of the resulting solutions was measured at 550 nm using a microplate reader (Bio-Rad 550 Hercules, CA, USA).
The cytotoxic effects of these cationic surfactants were also evaluated using two different cell lines. […] In this work, the cellular response upon incubation with the different surfactant series was evaluated in two representative skin cell lines: Swiss mouse fibroblasts (3T3 cell line) and human-derived keratinocytes (HaCaT cell line). The in vitro cytotoxicity was determined using the MTT as a measure of mitochondrial activity and the Neutral Red Uptake (NRU) related to lysosomal integrity, which are the most commonly used in vitro cytotoxicity endpoint methods. The cellular response at different concentrations (5, 25, 50, and 100 µM) was evaluated after 24 h of incubation.
(In general: Tetrazolium dyes change colour on reduction, which living cells bring about.)

Data set [2] in a line: Cytotoxicity, MTT assay. The format is cell-based, Swiss mouse. The following applies: mouse, 3T3 fibroblast cells, 3T3, MTT, read-out: cell viability; for viability at 24 h, 100 µg/mL: at 100 µg/mL; for viability at 24 h, 50 µg/mL: at 50 µg/mL. The protocol: as §1, §2, §3
(§4) The cytotoxic effects of these cationic surfactants were also evaluated using two different cell lines. The use of in vitro cytotoxicity tests is increasing daily, driven by the rise in human exposure to chemicals, as these tests are less costly and time-consuming than in vivo methods. The purpose of in vitro cytotoxicity tests is to detect the biocompatibility of these new surfactants. In this work, the cellular response upon incubation with the different surfactant series was evaluated in two representative skin cell lines: Swiss mouse fibroblasts (3T3 cell line) and human-derived keratinocytes (HaCaT cell line). The in vitro cytotoxicity was determined using the MTT as a measure of mitochondrial activity and the Neutral Red Uptake (NRU) related to lysosomal integrity, which are the most commonly used in vitro cytotoxicity endpoint methods. The cellular response at different concentrations (5, 25, 50, and 100 µM) was evaluated after 24 h of incubation.

Data set [3] is described as follows: Cytotoxicity, Neutral Red Uptake (NRU) assay. Type of data set: cell-based, Swiss mouse. The settings on record: mouse, 3T3 fibroblast cells, 3T3, NRU, across the full concentration range, read-out: cell viability. On the procedure:
as §1, §2
(§5) The NRU assay is based on the accumulation of neutral red dye within the lysosomes of viable, intact cells. Once the cells were incubated with the surfactants, the DMEM was removed, and the NRU dye solution (50 μg/mL dissolved in the medium without FBS and phenol red) was added to each well, and the reaction was allowed for 2 h. The cells were washed with PBS, and 100 μL of an aqueous solution containing 50% absolute ethanol and 1% acetic acid was then added to each well to extract the incorporated dye. The microplates were then stirred for 5 min at 25 °C to facilitate dissolution. Finally, the absorbance of the resulting solutions was measured at λ = 550 nm using a Bio-Rad 550 microplate reader (Hercules, CA, USA).
as §4

Details of data set [4]: method as in PMID 36559096. The settings on record: CO2 Headspace test, pass level 60%; cited from earlier work.
The subject of the next data set is C. albicans biofilms. As to the kind of experiment: Eradication of mature biofilm, MTT method. The settings on record: for concentration removing the total viability of the biofilm: 24 h treatment. The format is cell-based, Candida albicans. On the procedure:
(§6) Candida strains were cultured in SBA at 30 °C for 24 h. Yeast cells were then suspended in RPMI 1640 broth to a final concentration of 1.5 × 10^7 CFU/mL. For mature biofilm formation, 200 μL of these suspensions was transferred to each well of a 48-well microplate and incubated at 30 °C for 24 h. After incubation, the plate was washed with phosphate-buffered saline (PBS) to remove non-adherent cells. Then, surfactant solutions at various concentrations (200 μL), prepared in RPMI 1640, were added to the wells containing the mature biofilms. Plates were incubated again at 30 °C for 24 h. Following this treatment, the RPMI medium was removed, and wells were washed twice with PBS. To assess biofilm viability, 200 μL of MTT solution (3-(4,5-dimethylthiazol-2-yl)-2,5-diphenyltetrazolium bromide) were added to each well, and plates were incubated for 4 h. After incubation, the MTT solution was removed, and 200 μL of dimethyl sulfoxide (DMSO) were added to solubilize the formazan crystals. Absorbance at 540 nm (A540) was then measured using a microplate reader. Controls without the amino acid-based surfactants were included. All experiments were made in quadruplicate, and the results were averaged to ensure accuracy and reproducibility.
(§7) In this section, we have tested the ability of these cationic surfactants to eradicate mature fungal biofilms of C. albicans and C. tropicalis. Preformed biofilms of these two strains on 48-well plates were exposed to various concentrations of the synthesized surfactants, and the biofilm was not removed after the treatment was quantified using the MTT method (3-[4,5-dimethylthiazol-2-yl]-2,5 diphenyl tetrazolium bromide) (Figure 4). This method detects viable and metabolically active cells within the biofilm by measuring the reduction in MTT to formazan by active mitochondrial enzymes.

A further data set deals with C. tropicalis biofilms. As to the kind of experiment: Eradication of mature biofilm, MTT method. The format is cell-based, Candida tropicalis. The following applies: 24 h treatment. The protocol: as §6, §7
The test system of data set [5] is 3T3 cells. The data set is described as follows: Cytotoxicity, Neutral Red Uptake (NRU) assay. The format is cell-based, Swiss mouse. The following applies: 3T3, NRU, 24 h; moderate toxicity (TANHC12, PANHC12), onset of dramatic toxicity (PNHC12). The protocol:
as §1, §2, §5, §4

Data set [6] has as its system 3T3 cells. As to the kind of experiment: Cytotoxicity, MTT assay. Type of data set: cell-based, Swiss mouse. The following applies: Mus musculus, NIH3T3; 3T3, MTT, 24 h; read from viability curves. The protocol:
as §1, §2, §3, §4

SMILES strings stand for the structures. Counter-ions that a name gives are not always drawn. Like-named read-outs stand apart in the source and are kept apart here. Peptide text beside a SMILES is read from it. * marks the point of attachment. Lauroyl = CCCCCCCCCCCC(=O)* Where only a bound is given, the exact number is not on record here.

The viability is the share of living cells, or the viability signal relative to a control. For orientation: IC50 means the midpoint of a concentration-inhibition curve.

For the compound `CCCCCCCCCCCC(=O)NC(CCCNC(=N)N)C(=O)OC` (centres unmarked) [C12AM], in “Cytotoxicity, MTT assay [1]”, the viability at 24 h, 50 µg/mL was around 90%. Besides, the viability at 24 h in the data set “Cytotoxicity, MTT assay [2]” (across all concentrations up to 100 µg/mL) is above 85%; in data set [3] it was 100%. Besides, the biodegradation result in data set [4] was “over 60%”.

In the case of `CCCCCCCCCCCC(=O)NC(Cc1ccccc1)C(=O)NC(CCCNC(=N)N)C(=O)OC` (stereo not drawn) [C12PAM] (Lauroyl-Phe-Arg-OMe; configuration not given here), the viability at 24 h, 100 µg/mL in the data set “Cytotoxicity, MTT assay [2]” was around 60%. Further, in data set [3], the viability at 24 h was in the range of 60 to 100%. The biodegradation entry in data set [4] is “over 60%”. Also, the “reduction of the metabolic activity of the biofilm” value in the data set with C. albicans biofilms (highest concentration tested) is recorded as “less than 65%”.

Take `CCCCCCCCCCNC(=O)C(CCCNC(=N)N)NC(=O)C(N)Cc1ccccc1` (centres unmarked) [PANHC10]: the “concentration removing the total viability of the biofilm” value in the data set with C. tropicalis biofilms and in the data set on C. albicans biofilms was “≈ 400 μM” in each case.

As to `CCCCCCCCCCCCNC(=O)C(CCCNC(=N)N)NC(=O)C(N)Cc1ccccc1` (centres unmarked) [PANHC12, phenylalanine-arginine dodecyl amide dihydrochloride], in “Cytotoxicity, MTT assay [2]”, the viability at 24 h, 50 µg/mL was around 70%. For the same compound, in “Cytotoxicity, MTT assay [2]”, the viability at 24 h, 100 µg/mL was 5%. Also, the “concentration removing the total viability of the biofilm” value in the data set on C. tropicalis biofilms and with C. albicans biofilms was “≈ 50 μM” throughout. Moreover, the “concentration at which toxicity was seen” value in the data set with 3T3 cells [5] is given as “around 50 µg/mL”. In addition, the biodegradation entry in data set [4] was “did not reach this pass level”.

As to `CCCCCCCCCCCCCCNC(=O)C(CCCNC(=N)N)NC(=O)C(N)Cc1ccccc1` (centres unmarked) [PANHC14], the “concentration removing the total viability of the biofilm” value in the data set on C. tropicalis biofilms and in the data set on C. albicans biofilms was “≈ 50 μM” throughout.

On to `CCCCCCCCCCCCNC(=O)C(N)Cc1ccccc1` (centres unmarked) [PNHC12, phenylalanine dodecyl amide hydrochloride], for which the viability at 24 h, 50 µg/mL is 0% in “Cytotoxicity, MTT assay [1]” and around 0% in the data set “Cytotoxicity, MTT assay [2]”. The IC50 in the data set on 3T3 cells [6] is below 50 µg/mL. Further, the “concentration at which toxicity was seen” value in the data set with 3T3 cells [5] is 5000 ng/mL. Further, in data set [4], the biodegradation entry is “did not reach this pass level”.

In the case of `CCCCCCCCCCNC(=O)C(CCCNC(=N)N)NC(=O)C(N)Cc1c[nH]c2ccccc12` (centres unmarked) [TANHC10], the viability at 24 h in “Cytotoxicity, MTT assay [1]” (across the concentration range (TANHCn series)) is around 80%.

For the compound `CCCCCCCCCCCCNC(=O)C(CCCNC(=N)N)NC(=O)C(N)Cc1c[nH]c2ccccc12` (centres unmarked) [TANHC12], in the data set with 3T3 cells [5], the “concentration at which toxicity was seen” value is on record as “around 50 µg/mL”. The biodegradation entry in data set [4] is “did not reach this pass level”.
